Row | SMILES | melting point [°C]
1 | N[C@@H](CS(=O)(=O)O)C(=O)O | 273 to 275
2 | CCOC(=O)CNC(=O)C1(N(C(=O)c2ccc(N)cc2)N2CCCCC2)CCCCC1 | 92 to 96
3 | CC(C)(C)OC(=O)NCCCCCCNC(=O)c1cccc(-c2nc(=O)c3ccccc3s2)n1 | 145
4 | CCC1(CC(=O)O)OCC(=O)c2c1[nH]c1ccccc21 (stereo unspecified) | 235 to 238
5 | CC(C)(C)OC(=O)N[C@@H](Cc1ccccc1)[C@@H](O)C[C@@H](Cc1ccc(O)cc1)C(=O)N[C@H]1c2ccccc2C[C@H]1O | 218 to 219
6 | COC1(N(C)C)C=CC(C(=O)Nc2ccccc2)=CC1 (stereo unspecified) | 173
7 | COc1ccc(-c2cc(C(=O)O)nnc2-c2ccc(OC)cc2)cc1 | 157 to 158
8 | COc1ccc(-c2nc(S(=O)CC3OCCO3)[nH]c2-c2ccc(OC)cc2)cc1 (stereo unspecified) | 203 to 204
9 | CCCCOC1c2ccccc2C(=O)N(CC2CC2)C1(/C=C/C(=O)OCC)CNC(=O)OC(C)(C)C (stereo unspecified) | 166 to 167
10 | CC(=S)NCC1CN(c2ccc(N3CCC4(CC3)NC(=O)NC4=O)c(F)c2)C(=O)O1 (stereo unspecified) | 218
11 | Cc1cc(C(=O)Nc2c(NC(=O)CCl)ccc3c2C(=O)c2ccccc2C3=O)c(C)o1 | 207 to 208
12 | CN1CCN(S(=O)(=O)c2ccc(Nc3ncnc4cc(Cl)ccc34)cc2)CC1 | 237 to 239
13 | COC(=O)c1c(C)nc2ccc(Br)cc2c1NCc1ccccc1 | 89
14 | CCOC(=O)c1cnoc1-c1ccc(Cl)c(Cl)c1 | 108 to 110
15 | COC[C@H]1CCCN1NC(=O)c1ccc(-c2[nH]nc3c2C(=O)c2c(NC(=O)NN4CCOCC4)cccc2-3)s1 | 266 to 267
16 | O=C(Nc1ccccc1)N1CCc2ccccc2C1 | 145 to 146
17 | CCCn1c(=O)c2[nH]c(-c3nn(CC(=O)Nc4ccc(Cl)cc4)c(C)c3Br)nc2n(CCC)c1=O | 298 to 299
18 | CCOC(=O)C1CCc2c(sc3nc(CN4C(=O)COC4=O)c(Cl)c(-c4ccc(OC)cc4)c23)C1 (stereo unspecified) | 118 to 119
19 | O=C(O)CNC(=O)c1ncc2c(Cl)cccc2c1O | 232
20 | COc1cc(Cn2cc(CCC(=O)O)c(-c3ccccc3)c2)cc(OCc2csc(-c3cnccn3)n2)c1 | 111 to 112
21 | COc1cc(OC)c(S(C)(=O)=O)cc1C(=O)NCC1CCCN1C1CCCC1 (stereo unspecified) | 198
22 | CNC(=O)c1ccc(N2CC(CNC(C)=S)OC2=O)cc1F (stereo unspecified) | 176 to 177
23 | Nc1cccc(Cn2c(-c3ccc(NC(=O)c4cccc(Br)c4)cc3)ccc2-c2ccccc2Cl)n1 | 116 to 122
24 | ON=C1c2ccccc2CCC1Br (stereo unspecified) | 125 to 131
25 | CN1CCN(C2=Nc3ccccc3N3CCc4cc(Cl)cc2c43)CC1 | 182 to 183
26 | CC(=O)OC1=CCC2C3CCC4CCC(OC(C)=O)CC4(C)C3CCC12C (stereo unspecified) | 133 to 134

Row | SMILES | melting point [°C]
27 | CNc1nc(-c2ccc(OCc3ccc(Cl)cc3)cc2)cs1 | 158 to 159
28 | O=C(Nc1nc2ccc(Sc3cnc4ncc(NCc5ccccc5)cn34)cc2s1)C1CC1 | > 260
29 | CCOC(=O)C1=C(C)NC(O)(c2ccc([N+](=O)[O-])cc2)C(C(=O)OCC)C1c1cccc([N+](=O)[O-])c1 (stereo unspecified) | 196 to 197
30 | CC(=O)NC[C@H]1CN(c2cc(F)c(N3CCC(n4nnnc4-c4ccncc4)CC3)c(F)c2)C(=O)O1 | 202 to 204
31 | O=S(=O)(O)NCc1cc(I)cc(I)c1O | 168 to 170
32 | CC(C)c1cccc(C(C)C)c1NC(=O)NCC1CCc2ccccc21 (stereo unspecified) | 183 to 185
33 | FC(F)Oc1n[nH]cc1-c1ccccc1 | 125
34 | CCOC(=O)CCN(CNC(=O)OC(C)(C)C)C(=O)Cn1cc(C)c(=O)[nH]c1=O | 174 to 175
35 | Cc1cc(COc2ccccc2)c2c(N)c(C(N)=O)sc2n1 | 194 to 196
36 | COc1cc(O)c2c(c1O)CC=CC2 | 142 to 144
37 | Cc1cccc2nc(NC(=O)c3ccc(C(C)(C)C(=O)O)cc3)cn12 | 282 to 283
38 | Cc1cc(C)n(-c2nc(Nc3ccc(Cl)cc3)c3ccccc3n2)n1 | 209 to 211
39 | COc1ccc2c(-c3ccc(OC)c(C)c3)noc2c1 | 93 to 95
40 | CCCC1(C)CC(C)c2ccc(O)c(C)c2O1 (stereo unspecified) | 60
41 | O=C(O)[C@H]1O[C@@H]1C1CCCCC1 | 64 to 65
42 | CCN(CC)c1nc2n(n1)Cc1ccccc1-2 | 234 to 236
43 | CCOC(=O)c1cnc2ccc(OCC)nc2c1Nc1ccc(Oc2ccccn2)cc1 | 148 to 151
44 | CC(O)c1cc(S(N)(=O)=O)sc1S(=O)(=O)c1ccc(O)cc1 (stereo unspecified) | 173 to 175
45 | COC(=O)C[C@H]1C[C@H](C=Cc2c(-c3ccc(F)cc3)c(-c3ccc(F)cc3)c(C(=O)OCc3ccccc3)n2C(C)C)OC(C)(C)O1 | 125 to 127
46 | CC(C)(Oc1ccc(CC(=O)Nc2cc(Cl)c(Cl)c(Cl)c2)cc1)C(=O)O | 160
47 | CC(=O)Oc1ccccc1C(=O)Nc1cc(Cl)cc(Cl)c1 | 167 to 168
48 | c1ccc2c(c1)CSc1nnnn1-2 | 137
49 | CSc1ccc(/C=C/c2nc3ccccc3n2-c2ccccn2)cc1 | 140 to 141
50 | COc1cc2c(cc1OC)C(C(C#N)SCCO)=NCC2 (stereo unspecified) | 138 to 140
51 | Cn1c(CCNC(=O)OCc2ccccc2)nc(-c2ccncn2)cc1=O | 121 to 123
52 | CCCCCCSCC(O)COc1cccc2oc(C(=O)O)cc(=O)c12 (stereo unspecified) | 97 to 100

Row | SMILES | melting point [°C]
53 | CN1C(C(=O)Nc2cccccc2=O)=C(O)c2ccccc2S1(=O)=O | 259 to 261
54 | CC(=NOCCO)c1ccc(-c2ccccc2)cn1 | 66 to 68
55 | O=C(CC1NC(=O)c2ccsc2-n2cccc21)c1ccccc1 (stereo unspecified) | 205
56 | O=Cc1ccc(OC(F)F)c(OCC2CC2)c1 | 115 to 116
57 | N#Cc1cccc(OCCc2c[nH]cn2)c1 | 189 to 190
58 | O=C(c1ccccc1)c1ccc(OCc2ccccc2)cc1S | 122 to 123
59 | O=[N+]([O-])c1cccc2c1c([N+](=O)[O-])cc1nc(O)c(O)nc12 | > 300
60 | CS(=O)(=O)c1ccc(CC(=S)N2CCOCC2)cc1 | 198 to 199
61 | CC(C)(C)OC(=O)NCCOc1noc2ccc(F)c(C#N)c12 | 116 to 117
62 | C[C@@H]1N[C@H](c2ccccc2)COC1=O | 82 to 83
63 | CC(C)(C)OC(=O)N[C@H]1CC[C@H](CCN2CCCC2)CC1 | 110
64 | COc1ccc(CC(=O)c2ccc(OC)cc2O)cc1 | 101 to 102
65 | CS(=O)(=O)Nc1ccc(C(=O)c2ccccc2)cc1 | 145 to 147
66 | CC(=O)Oc1cc(/C=C/c2ccccc2)cc(OC(C)=O)c1 | 90 to 90.5
67 | CCOC(=O)c1cn(C2CC2)c2occc2c1=O | 200 to 201
68 | CC1(C)CC(=S)Nc2ccc(-c3cccc(F)c3)cc21 | 209 to 211
69 | O=C1c2ccc([N+](=O)[O-])cc2C(=O)N1C1CCN(Cc2cccnc2)CC1 | 143 to 144
70 | COCC1CN=C(c2ccc(OCCCCCCCc3cc(C)no3)cc2)O1 (stereo unspecified) | 53 to 55
71 | O=[N+]([O-])c1cnc2cccnc2c1NCc1ccccc1 | 127 to 129
72 | COc1cc(Nc2nccc(-c3ccsc3)n2)cc(OC)c1OC | 163
73 | NC(=O)c1ccc(Cn2ccc(OCc3ccc(F)cc3F)c(Br)c2=O)cc1 | 235 to 238
74 | Cc1ccc2c(c1)SC(c1ccc(OCCCCCBr)cc1)C(=O)N2C (stereo unspecified) | 81 to 82
75 | Cn1cc(-c2ccccc2S(N)(=O)=O)cn1 | 183 to 186
76 | COc1ccc(C(=O)c2ccc(OCc3nc(-c4cccc(OS(C)(=O)=O)c4)oc3C)cc2)c(OC(C)(C)C(=O)O)c1 | 182 to 183
77 | CCCCn1c(=O)n(CCCC2CO2)c(=O)c2c1ncn2C (stereo unspecified) | 76 to 78
78 | CC(C)(C#N)c1cc(CSc2ccc(O)c(Cl)c2)cc(Cn2cncn2)c1 | 131

Row | SMILES | melting point [°C]
79 | CN1C(=O)CCCc2cc(Nc3ncc(Cl)c(NC4CCCCC4C(N)=O)n3)ccc21 (stereo unspecified) | 251 to 253
80 | COc1ccc(-c2cnc(C3(c4ccc(OC)c(OC)c4)NCCc4c3[nH]c3ccccc43)nc2)cc1OC (stereo unspecified) | 184 to 186
81 | CN(C(=O)Oc1cccc2c1OC(C)(C)C2)C(=O)N1CCCCC1 | 98 to 100
82 | COC(=O)CCc1cc2nc(Cl)ccc2n1S(=O)(=O)c1cc(OC)ccc1OC | 127
83 | CCOC(=O)c1ncn2c1CN(Cc1ccc(OC)cc1OC)C(=O)c1sccc1-2 | 168
84 | COC(=O)C(Cc1ccc(OCc2nc3ccc(OC)cc3n2C)cc1)NS(C)(=O)=O (stereo unspecified) | 168 to 171
85 | O=C(Cn1c(-c2ccc(Cl)cc2)nc2cccnc21)Nc1nccs1 | > 260
86 | CN1CCN(CCSc2nc3ccccc3[nH]2)CC1 | 93 to 95
87 | OC1CSC(Oc2cc(-c3ccncc3)cnc2F)C(O)C1O (stereo unspecified) | 98 to 102
88 | CCc1cccc(CC)c1NC(=O)NCC(c1ccccc1)c1ccccc1 | 200 to 201
89 | CC(=O)ON1C(C)(C)CC(OC(=O)CCCCCCCCC(=O)OC2CC(C)(C)N(OC(C)=O)C(C)(C)C2)CC1(C)C | 81 to 94
90 | COC(=O)c1cc2cc(-c3ccc4ccc(Cl)cc4n3)ccc2o1 | 178 to 181
91 | CCOC(CNC(=C[N+](=O)[O-])SC)OCC | 73 to 73.5
92 | COC(=O)C1=C(C)NC(C)=C(C(=O)CS(=O)(=O)N(C)C)C1c1cccc([N+](=O)[O-])c1 (stereo unspecified) | 154 to 157
93 | COc1cccc(C=NNC(=O)OC(C)(C)C)c1 | 136 to 137
94 | COc1ccc(C(=O)N2CCCC2=O)cc1 | 120
95 | C[C@H](CO)Nc1nc(SCc2cccc(F)c2F)nc2[nH]c(=O)c(NCc3ccccc3)nc12 | 80 to 100
96 | Cc1ccnc2c([N+](=O)[O-])cc(F)cc12 | 139 to 141
97 | OC(Cc1nc[nH]n1)(Cc1nc[nH]n1)c1ccc(Cl)cc1Cl | 182 to 185
98 | O=C(Nc1nccs1)C(CC1CCCC1)c1ccc(Br)cc1 (stereo unspecified) | 201 to 202
99 | Nc1cc(S(=O)(=O)c2ccccc2)c([N+](=O)[O-])c2cccnc12 | 211 to 213
100 | Cc1cn(C(C)C(=O)N(C)C)nc1-c1cccc(Cl)c1 (stereo unspecified) | 73 to 75
101 | [N-]=[N+]=NCC(=O)c1cn2c3c(cccc13)CCC2 | 92 to 93
